# Measurements as given in patent US10131652B2, “Pyrimidinyloxy benzene derivatives as herbicides” (E. I. DU PONT DE NEMOURS AND COMPANY, priority 2014, dated 2018).
# Key:
# Assay type in all cases: in vivo
# [1] = tested on: blackgrass (Alopecurus myosuroides); test: Test B postemergence plant response
# Outline: (§1)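 Visual injury ratings, 0 = no effect to 100 = complete control, versus untreated controls approximately 10 days after postemergence spraying in greenhouse. Plants were at one- to two-leaf stage, 2 to 10 cm tall, in loam soil/sand blend; a dash denotes no result.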
# [2] = tested on: galium (catchweed bedstraw, Galium aparine); test: Test B postemergence plant response
# Outline: as §1
# rice (Oryza sativa) = test: Test C flooded paddy test plant response; conditions: Flood, 250 g ai/ha; scale of 0 to 100 where 0 is no effect and 100 is complete control; 13 to 15 days
# Outline: (§2)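 Greenhouse paddy assay, 13–15 days. Treatment into 3 cm floodwater over 2-leaf plants; visual 0–100 rating against controls.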
# [3] = tested on: ducksalad (Heteranthera limosa); test: Test C flooded paddy test plant response; conditions: Flood, 250 g ai/ha; scale of 0 to 100 where 0 is no effect and 100 is complete control; 13 to 15 days
# Outline: as §2
# [4] = tested on: barnyardgrass (Echinochloa crus-galli); test: Test C flooded paddy test plant response; conditions: Flood, 250 g ai/ha; scale of 0 to 100 where 0 is no effect and 100 is complete control; 13 to 15 days
# Outline: as §2
# [5] = tested on: small-flower umbrella sedge (Cyperus difformis); test: Test C flooded paddy test plant response; conditions: Flood, 250 g ai/ha; scale of 0 to 100 where 0 is no effect and 100 is complete control; 13 to 15 days
# Outline: as §2
# corn (Zea mays) = test: Test B pre-/postemergence plant response
# Outline: (§3)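 Visual injury scores on a 0–100 scale (100 = complete control) relative to untreated plants, taken about 10 days post-treatment in greenhouse. Treatments were a directed preemergence soil spray and a postemergence spray at one- to two-leaf stage, using surfactant-containing solvent formulation.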
# [6] = tested on: Italian ryegrass (Lolium multiflorum); test: Test B pre-/postemergence plant response
# Outline: as §3
# [7] = tested on: barnyardgrass (Echinochloa crus-galli); test: Test B pre-/postemergence plant response
# Outline: as §3
# [8] = tested on: giant foxtail (Setaria faberii); test: Test B pre-/postemergence plant response
# Outline: as §3
# [9] = tested on: wheat (Triticum aestivum); test: Test B pre-/postemergence plant response
# Outline: as §3
# [10] = tested on: pigweed (Amaranthus retroflexus); test: Test B pre-/postemergence plant response
# Outline: as §3
# [11] = tested on: ragweed (common ragweed, Ambrosia elatior); test: Test B pre-/postemergence plant response
# Outline: as §3
# kochia (Kochia scoparia) = test: Test B pre-/postemergence plant response
# Outline: as §3
# [12] = 125 g ai/ha, postemergence, 0 to 100 scale, 0 no effect, 100 complete control
# [13] = Postemergence, 31 g ai/ha, 0 to 100 scale (0 no effect, 100 complete control)
# [14] = 31 g ai/ha, Preemergence, 0 to 100 scale where 0 is no effect and 100 is complete control
# [15] = Preemergence, 125 g ai/ha, 0 to 100 scale (0 no effect, 100 complete control)
# [16] = 500 g ai/ha, postemergence, 0 to 100 scale, 0 no effect, 100 complete control
# [17] = Preemergence, 500 g ai/ha, 0 to 100 scale where 0 is no effect and 100 is complete control
SMILES,"Plant response rating, Blackgrass [1, 12]","Plant response rating, Galium [2, 12]",Rice plant response rating (rice (Oryza sativa)),Ducksalad plant response rating [3],Barnyardgrass plant response rating [4],"Sedge, Umbrella plant response rating [5]","Plant response rating, Corn (corn (Zea mays); [12])","Plant response rating, Ryegrass, Italian [6, 12]","Ryegrass, Italian plant response rating [6, 15]","Plant response rating, Barnyardgrass [7, 12]","Barnyardgrass plant response rating [7, 15]","Plant response rating, Foxtail, Giant [8, 12]","Foxtail, Giant plant response rating [8, 15]","Plant response rating, Wheat [9, 12]","Plant response rating, Pigweed [10, 12]","Pigweed plant response rating [10, 15]","Plant response rating, Ragweed [11, 12]","Ragweed plant response rating [11, 15]","Plant response rating, Kochia (kochia (Kochia scoparia); [12])",Kochia plant response rating (kochia (Kochia scoparia); [15]),other results
Cn1nc(-c2ccccc2Oc2ncc(Cl)cn2)cc1C(F)(F)F [Compound 237],0,0,0,0,0,0,0,0,0,0,0,0,0,0,0,0,0,0,0,0,"Plant response rating, Blackgrass [1, 13]: 0; Plant response rating, Galium [2, 13]: 0; Plant response rating, Corn (corn (Zea mays); [13]): 0; Plant response rating, Ryegrass, Italian [6, 14]: 0; Plant response rating, Ryegrass, Italian [6, 13]: 0; Plant response rating, Barnyardgrass [7, 14]: 0; Plant response rating, Barnyardgrass [7, 13]: 0; Plant response rating, Foxtail, Giant [8, 14]: 0; Plant response rating, Foxtail, Giant [8, 13]: 0; Plant response rating, Wheat [9, 13]: 0; Plant response rating, Pigweed [10, 14]: 0; Plant response rating, Pigweed [10, 13]: 0; Plant response rating, Ragweed [11, 14]: 0; Plant response rating, Ragweed [11, 13]: 0; Plant response rating, Kochia (kochia (Kochia scoparia); [14]): 0; Plant response rating, Kochia (kochia (Kochia scoparia); [13]): 0"
Fc1cccc(Oc2ncc(Cl)cn2)c1-c1cn(CC(F)(F)F)cn1 [Compound 217],0,10,0,40,20,0,0,0,0,0,0,0,0,0,10,10,10,0,10,0,"Plant response rating, Blackgrass [1, 16]: 0; Plant response rating, Galium [2, 16]: 30; Plant response rating, Corn (corn (Zea mays); [16]): 0; Plant response rating, Ryegrass, Italian [6, 16]: 0; Plant response rating, Ryegrass, Italian [6, 17]: 10; Plant response rating, Barnyardgrass [7, 16]: 0; Plant response rating, Barnyardgrass [7, 17]: 10; Plant response rating, Foxtail, Giant [8, 16]: 0; Plant response rating, Foxtail, Giant [8, 17]: 30; Plant response rating, Wheat [9, 16]: 0; Plant response rating, Pigweed [10, 16]: 60; Plant response rating, Pigweed [10, 17]: 70; Plant response rating, Ragweed [11, 16]: 30; Plant response rating, Ragweed [11, 17]: 0; Plant response rating, Kochia (kochia (Kochia scoparia); [16]): 30; Plant response rating, Kochia (kochia (Kochia scoparia); [17]): 0"
